Assay [1] deals with CCl4-induced liver cirrhosis in a mouse model. The assay is described as follows: Serum biochemical testing (ALT, AST, TBil, MAO, ALB) in CCl4-induced liver cirrhosis model mice. The assay is classed as in vivo, C57BL/6N mice. The following applies: sorafenib 25 mg/kg intragastrically, once a day for 20 days. From the text:
(§1) 70 SPF male C57BL/6N mice, 6-8 weeks old and 16-20 g body weight, were purchased from Beijing Huafukang Experimental Animal Technology Co., Ltd. (production license number: SOCK (Jing) 2019-0008). According to body weight, they were randomly divided into 7 groups (n=10): blank control group, model group, positive control group, Cu-1 low dose group, Cu-1 high dose group, Cu-2 low dose group, Cu-2 high dose group.
(§2) Except for the blank control group, liver cirrhosis model of mice in other groups was prepared by the treatment of carbon tetrachloride (CCl4)-induction method. The modeling protocoal was as follows: (1) Each mouse was intraperitoneally injected with 10% CCl4 (diluted with olive oil) at 7 μL/g body weight, twice a week for a total of 8 weeks; mice of the blank control group were injected intraperitoneally with the same amount of olive oil solvent. (2) from the 6th week, two mice were selected and killed 48 hours after the last injection every week. The appearance of the liver was observed. After the appearance was in line with the characteristics of cirrhosis (the 8th week), the liver tissue was fixed with formalin. HE staining and Masson staining were used to evaluate the model of cirrhosis. […]

For assay [2] the test system is unchanged. The assay is described as follows: HE staining pathological examination of liver tissue in CCl4-induced liver cirrhosis model mice. The assay is classed as in vivo, C57BL/6N mice. The note with it: sorafenib 25 mg/kg intragastrically, 20 days, vs model control group.
Source text: as §1, §2

These results are taken from patent publication US20230045685A1, “COPPER CLUSTERS, COMPOSITION, AND METHOD FOR TREATMENT OF LIVER CIRRHOSIS” (Wuhan Vast Conduct Science Foundation CO., LTD., priority 2020, published 2023).

`CNC(=O)c1cc(Oc2ccc(NC(=O)Nc3ccc(Cl)c(C(F)(F)F)c3)cc2)ccn1` [Sorafenib]: in assay [1] (model group 188.5±4.9, P<0.01), the “serum ALT activity” value was 42.8±5.4 U/L. For the same molecule, the “serum AST activity” value in assay [1] (model group 192.0±11.3, P<0.05) is reported as 165.5±11.6 U/L. In assay [2], the “HE staining: liver pathology” value is listed as “significant reduction of liver damages”.
